Results on three molecules are retold here after patent US8592174B2, “Peptidase substrates” (bioMérieux, S.A., priority 2009, dated 2013).

Holding throughout (type): cell-based
Experiment [1] relates to Pseudomonas aeruginosa 89 09 041. Nature of the experiment: pH variation detection on modified chromID Coli medium (Example 6). Particulars: 50 mg/l, 24 h 37° C. The method, then:
(§1) The media were incubated for 24 hours at 37° C., then the spots formed were examined visually.

The test system of experiment [2] is Pectobacterium atrosepticum 80 12 075. Described as above. Particulars: 50 mg/l, 24 h 37° C. The method, then: as §1
The test system of experiment [3] is Enterobacter sakazakii 05 01 020. The description is as above. Particulars: 50 mg/l, 24 h 37° C. The method, then:
as §1

Experiment [4] deals with Staphylococcus epidermidis 0203050. Nature of the experiment: Peptidase detection on Columbia medium (Example 5). The conditions noted are these: 75 mg/l, 48 h 37° C. The procedure: (§2) After homogenization, the media were distributed into Petri dishes 55 mm in diameter. A medium acting as a growth control (Columbia) and denoted C was also poured.
(§3) Twenty-two strains of microorganisms were inoculated with a 10 μl calibrated loop according to the three-quadrant streaking method using bacterial suspensions at 0.5 McFarland.

In experiment [5] the test system is Candida glabrata 0408083. Nature of the experiment: Peptidase detection on Columbia medium (Example 5). The conditions noted are these: 75 mg/l, 48 h 37° C. The method, then: as §2, §3
The test system of experiment [6] is Enterococcus faecalis 0008192. As to the kind of experiment: Peptidase detection on Columbia medium (Example 5). Particulars: 75 mg/l, 48 h 37° C. The method, then:
as §2, §3

Experiment [7] has as its system Morganella morganii 9207053. As to the kind of experiment: Peptidase detection on Columbia medium (Example 5). The conditions noted are these: 75 mg/l, 48 h 37° C. The method, then:
as §2, §3

For experiment [8], the system named is Burkholderia cepacia 7507032. As to the kind of experiment: Peptidase detection on Columbia medium (Example 5). Particulars: 75 mg/l, 48 h 37° C. The procedure: as §2, §3
In experiment [9] the test system is Streptococcus pyogenes 9806380. As to the kind of experiment: Peptidase detection on Columbia medium (Example 5). The conditions noted are these: 75 mg/l, 48 h 37° C. The procedure: as §2, §3
In experiment [10] the test system is Pseudomonas aeruginosa 0001001. Nature of the experiment: Peptidase detection on Columbia medium (Example 5). The conditions noted are these: 75 mg/l, 48 h 37° C. The procedure:
as §2, §3

Experiment [11] relates to Klebsiella pneumoniae 0008009. Nature of the experiment: Peptidase detection on Columbia medium (Example 5). The conditions noted are these: 75 mg/l, 48 h 37° C. The method, then:
as §2, §3

Experiment [12] has as its system Yersinia enterocolitica 7605019. Nature of the experiment: Peptidase detection on Columbia medium (Example 5). Particulars: 75 mg/l, 48 h 37° C. The procedure:
as §2, §3

Experiment [13] relates to Enterobacter cloacae 0604040. As to the kind of experiment: Peptidase detection on Columbia medium (Example 5). The conditions noted are these: 75 mg/l, 48 h 37° C. The method, then:
as §2, §3

Experiment [14] concerns Providencia rettgeri 0706064. As to the kind of experiment: Peptidase detection on Columbia medium (Example 5). The conditions noted are these: 75 mg/l, 48 h 37° C. The method, then: as §2, §3
For experiment [15], the system named is Candida albicans 0801025. As to the kind of experiment: Peptidase detection on Columbia medium (Example 5). The conditions noted are these: 75 mg/l, 48 h 37° C. The method, then: as §2, §3
The test system of experiment [16] is Serratia marcescens 7303004. Nature of the experiment: Peptidase detection on Columbia medium (Example 5). The conditions noted are these: 75 mg/l, 48 h 37° C. The procedure:
as §2, §3

For experiment [17], the system named is Enterococcus faecium 0610021. Nature of the experiment: Peptidase detection on Columbia medium (Example 5). Particulars: 75 mg/l, 48 h 37° C. The procedure: as §2, §3
Experiment [18] concerns Pseudomonas aeruginosa NCTC 10 662. As to the kind of experiment: Peptidase detection on Columbia medium (Example 2). Also on record: key to Growth: NG: No growth; 0.5: weak growth; 1: moderate growth; 2: good growth. The conditions noted are these: 40 mg in 400 ml Columbia; 24 h 37° C.
Method: (§4) The 6 media were distributed into Petri dishes 90 mm in diameter, in a proportion of 20 ml per dish.
(§5) Seventeen strains of microorganisms stemming from collections and belonging to various species of bacteria and yeasts are inoculated in spots of approximately 10 000 colony-forming units.
(§6) The media are incubated for 24 hours at 37° C., and then the colonies formed are examined visually, with or without the addition of acid and under a UV lamp at 365 nm.
For experiment [19], the system named is Enterococcus faecalis NCTC 775. As to the kind of experiment: Peptidase detection on Columbia medium (Example 2). Also on record: key to Growth: NG: No growth; 0.5: weak growth; 1: moderate growth; 2: good growth. Particulars: 40 mg in 400 ml Columbia; 24 h 37° C.
Method: as §4, §5, §6
The test system of experiment [20] is Streptococcus pyogenes NCTC 8 306. As to the kind of experiment: Peptidase detection on Columbia medium (Example 2). Also on record: key to Growth: NG: No growth; 0.5: weak growth; 1: moderate growth; 2: good growth. The conditions noted are these: 40 mg in 400 ml Columbia; 24 h 37° C.
Method: as §4, §5, §6
Experiment [21] relates to Staphylococcus aureus NCTC 6 571. As to the kind of experiment: Peptidase detection on Columbia medium (Example 2). Also on record: key to Growth: NG: No growth; 0.5: weak growth; 1: moderate growth; 2: good growth; key to Fluo. / Color / Color post-acid.: —: no color. The conditions noted are these: 40 mg in 400 ml Columbia; 24 h 37° C.
Method: as §4, §5, §6
Experiment [22] concerns Bacillus subtilis NCTC 9 372. Nature of the experiment: Peptidase detection on Columbia medium (Example 2). Also on record: key to Growth: NG: No growth; 0.5: weak growth; 1: moderate growth; 2: good growth; key to Fluo. / Color / Color post-acid.: —: no color. Particulars: 40 mg in 400 ml Columbia; 24 h 37° C.
Method: as §4, §5, §6
Experiment [23] concerns Candida albicans ATCC 90 028. As to the kind of experiment: Peptidase detection on Columbia medium (Example 2). Also on record: key to Growth: NG: No growth; 0.5: weak growth; 1: moderate growth; 2: good growth; key to Fluo. / Color / Color post-acid.: —: no color. The conditions noted are these: 40 mg in 400 ml Columbia; 24 h 37° C.
Method: as §4, §5, §6
The subject of experiment [24] is Listeria monocytogenes NCTC 11 994. As to the kind of experiment: Peptidase detection on Columbia medium (Example 2). Also on record: key to Growth: NG: No growth; 0.5: weak growth; 1: moderate growth; 2: good growth; key to Fluo. / Color / Color post-acid.: —: no color. Particulars: 40 mg in 400 ml Columbia; 24 h 37° C.
Method: as §4, §5, §6

With `Nc1ccc(C=Cc2ccnc3ccccc23)cc1`, the Coloration strength entry in [1], in [2] and in experiment [3] was “−” each time. Further, the Growth entry is listed as “+” in experiment [1] (control C: ++), “−” in experiment [2] (control C: −) and “++” in [3] (control C: ++).
For `C[C@H](N)C(=O)Nc1ccc(C=Cc2cc[n+](C)c3ccccc23)cc1.Cl.[Cl-]` [L-alanyl-4-(4′-amidostyryl)-N-methylquinolinium (dichloride)], the Color result in [4] is recorded as “orange”; in experiment [5], “−”; in experiment [6] it was “orange”; in experiment [7] it was “orange”; in [8] it was “−”; in experiment [9] it was “orange”. For the same molecule, the Color entry in experiment [10] is on record as “orange”; in [11] it was “orange”; in experiment [12] it was “orange”; in experiment [13] it was “orange”; in experiment [14], “orange”; in experiment [15], “−”. For the same molecule, the Color result in experiment [16] was “orange”; in experiment [17] it was “−”. Besides, the Coloration strength result in experiment [4] is listed as “+”; in [5], “−”; in experiment [6], “+”; in [7], “++”; in experiment [8], “−”; in experiment [9], “+”. Also, the Coloration strength entry in experiment [10] was “++”; in experiment [11], “++”; in experiment [12] it was “++”; in [13], “+”; in experiment [14], “++”; in [15], “−”. In addition, the Coloration strength result in experiment [16] is “++”; in experiment [17] it was “−”. For the same molecule, the Growth entry is given as “++” in experiment [4] (control C: ++); “+” in experiment [5] (control C: +); “+” in experiment [6] (control C: +); “++” in experiment [7] (control C: ++); “++” in [8] (control C: ++); “+” in experiment [9] (control C: +). The Growth result in [10] (control C: ++) is “++”; in experiment [11] (control C: ++) it was “++”; in [12] (control C: +) it was “+”; in [13] (control C: ++), “++”; in experiment [14] (control C: ++) it was “++”; in experiment [15] (control C: ++) it was “++”. Also, the figures for the Growth result in [16] (control C: ++) and in experiment [17] (control C: +) were “++” and “+”, respectively.
Turning to `C[C@H](N)C(=O)N[C@@H](C)C(=O)N[C@@H](C)C(=O)Nc1ccc(C=Cc2cc[n+](C)c3ccccc23)cc1.Cl.[Cl-]` [Tri-Ala-ASQM^+, L-alanyl-L-alanyl-L-alanyl-4-(4′-amidostyryl)-N-methylquinolinium (dichloride)], the Color entry in experiment [18] is listed as “Orange”; in [21], “—”; in experiment [22], “—”; in experiment [23] it was “—”; in experiment [24], “—”. The Growth in experiment [18], in experiment [19], in [20], in [21], in [22] and in experiment [23] was 2 throughout. In addition, the Growth in experiment [24] stood at 2.
